Measurements from patent US8084452B2, “Substituted enaminocarbonyl compounds used as insecticides” (Bayer Cropscience AG, priority 2006, dated 2011).

Assays:
Format in all cases: in vivo
[1] = tested on: adult fleas (Ctenocephalides felis); test: Ctenocephalides felis; oral (CTECFE); settings: 100 ppm in citrated cattle blood
Method: Ctenocephalides felis; Oral (CTECFE)
To produce a suitable preparation of active compound, 1 part by weight of active compound is mixed with the stated amount of solvent. Part of the concentrate is diluted with citrated cattle blood, and the desired concentration is prepared.
20 unfed adult fleas (Ctenocephalides felis) are placed into a chamber whose top and bottom ends are closed with gauze. A metal cylinder whose bottom end is closed with parafilm is placed onto the chamber. The cylinder contains the blood/active compound preparation, which can be taken up by the fleas through the parafilm membrane. The blood is warmed to 37° C., but the flea chamber is at room temperature.
After the desired period of time, the kill in % is determined 100% means that all fleas have been killed; 0% means that none of the fleas have been killed.

Lucilia cuprina larvae = test: Lucilia cuprina test (LUCICU); settings: 100 ppm, treated horse meat
Method: Lucilia cuprina Test (LUCICU)
To produce a suitable preparation of active compound, 1 part by weight of active compound is mixed with the stated amounts of solvent, and the concentrate is diluted with water to the desired concentration.
Containers containing horse meat treated with the preparation of active compound of the desired concentration are populated with Lucilia cuprina larvae.
After the desired period of time, the kill in % is determined 100% means that all larvae have been killed; 0% means that none of the larvae have been killed.

[2] = tested on: green peach aphid (Myzus persicae); test: Myzus test (MYZUPE spray treatment); settings: 500 g/ha, spray on Chinese cabbage leaf discs
Method: Myzus Test (MYZUPE Spray Treatment)
(§1) To produce a suitable preparation of active compound, 1 part by weight of active compound is mixed with the stated amounts of solvent and emulsifier, and the concentrate is diluted with emulsifier-containing water to the desired concentration.
Discs of Chinese cabbage leaves (Brassica pekinensis) which are infested by all stages of the green peach aphid (Myzus persicae) are sprayed with a preparation of active compound of the desired concentration.
After the desired period of time, the effect in % is determined 100% means that all aphids have been killed; 0% means that none of the aphids have been killed.

[3] = tested on: whitefly (Bemisia tabaci); test: Bemisia tabaci (BEMITA spray treatment); settings: 500 g/ha, spray on cotton leaf discs infested by larvae
Method: Bemisia tabaci (BEMITA Spray Treatment)
as §1
Discs of cotton leaves (Gossypium hirsutum) which are infested by larvae of the whitefly (Bemisia tabaci) are sprayed with a preparation of active compound of the desired concentration.
After the desired period of time, the effect in % is determined 100% means that all whiteflies have been killed; 0% means that none of the whiteflies have been killed.

Meloidogyne incognita = test: Meloidogyne test (MELGIN spray treatment); settings: 20 ppm, nematicidal activity by formation of galls on lettuce roots
Method: Meloidogyne Test (MELGIN Spray Treatment)
(§2) To produce a suitable preparation of active compound, 1 part by weight of active compound is mixed with the stated amounts of solvent and emulsifier, and the concentrate is diluted with water to the desired concentration.
Containers are filled with sand, active compound solution, Meloidogyne incognita egg/larvae suspension and lettuce seeds. The lettuce seeds germinate and the plants develop. On the roots, galls are formed.
After the desired period of time, the nematicidal activity is determined by the formation of galls in %. 100% means that no galls were found; 0% means that the number of galls on the treated plants corresponds to that of the untreated controls.

[4] = tested on: green peach aphid (Myzus persicae); test: Myzus persicae test (MYZUPE G), watering; settings: 4 ppm, cabbage plants watered
Method: Myzus persicae Test; (MYZUPE G)
as §2
Cabbage plants (Brassica oleracea) which are heavily infested by the green peach aphid (Myzus persicae) are watered with a preparation of active compound of the desired concentration.
(§3) After the desired period of time, the kill in % is determined 100% means that all aphids have been killed; 0% means that none of the aphids have been killed.

Boophilus microplus = Boophilus microplus test (BOOPMI injection); settings: 20 μg/animal injected into abdomen, 100% means no tick has laid fertile eggs
Method: Boophilus microplus Test (BOOPMI Injection)
To produce a suitable preparation of active compound, 1 part by weight of active compound is mixed with the stated amount of solvent, and the concentrate is diluted with solvent to the desired concentration.
The solution of active compound is injected into the abdomen (Boophilus microplus), and the animals are transferred into dishes and kept in a temperature-controlled room.
After the desired period of time, the effect in % is determined. 100% means that no tick has laid any fertile eggs.

[5] = tested on: cotton aphid (Aphis gossypii); test: Aphis gossypii test (APHIGO), leaf dip; settings: 100 ppm, cotton leaves dipped
Method: Aphis gossypii Test (APHIGO)
as §1
Cotton leaves (Gossypium hirsutum) which are heavily infested by the cotton aphid (Aphis gossypii) are treated by being dipped into the preparation of active compound of the desired concentration.
as §3

[6] = tested on: brown planthopper (Nilaparvata lugens); test: Nilaparvata lugens test (NILALU hydroponic treatment); settings: 100 g/ha (so in the source), active compound pipetted into water
Method: Nilanarvata lugens Test (NILALU Hydrononic Treatment)
as §1
The preparation of active compound is pipetted into water. […] The water is then infected with the brown planthopper (Nilaparvata lugens).
After the desired period of time, the effect in % is determined. 100% means that all planthoppers have been killed; 0% means that none of the planthoppers have been killed.

[7] = tested on: green peach aphid (Myzus persicae); test: Myzus persicae test, hydroponic treatment (MYZUPE sys.); settings: 20 ppm in water, pea plant
Method: Myzus persicae Test, Hydroponic Treatment (MYZUPE Sys.)
as §2
The preparation of active compound is mixed with water. The stated concentration refers to the amount of active compound per volume unit of water (mg/l=ppm). The treated water is filled into containers housing a pea plant (Pisum sativum) which is then infected with the green peach aphid (Myzus persicae).
(§4) After the desired period of time, the kill in % is determined. 100% means that all aphids have been killed; 0% means that none of the aphids have been killed.

[8] = tested on: cotton aphid (Aphis gossypii); test: Aphis gossypii test (APHIGO G), watering; settings: 4 ppm, cotton plants watered
Method: Aphis gossypii Test; (APHIGO G)
as §2
Cotton plants (Gossypium hirsutum) which are heavily infested by the cotton aphid (Aphis gossypii) are watered with a preparation of active compound of the desired concentration.
as §4

| Structure (SMILES) | Kill rate in % after 2 days [1] [%] | Kill rate in % after 2 days (Lucilia cuprina larvae) [%] | Kill rate in % after 5 days [2] [%] | Kill rate in % after 7 days [3] [%] | Kill rate in % after 14 days (Meloidogyne incognita) [%] | Kill rate in % after 10 days [4] [%] | Kill rate in % after 7 days (Boophilus microplus) [%] | Kill rate in % after 6 days [5] [%] | Kill rate in % after 7 days [6] [%] | Kill rate in % after 6 days [7] [%] | Kill rate in % after 10 days [8] [%] |
| --- | --- | --- | --- | --- | --- | --- | --- | --- | --- | --- | --- |
| O=C1C=C(N(Cc2cnc(Cl)c(F)c2)CC(F)F)CO1 [Example 1, 4-[[(6-Chloro-5-fluoropyridin-3-yl)methyl](2,2-difluoroethyl)amino]furan-2(5H)-one] | 80 | 100 | 100 | 100 |  |  |  |  |  |  |  |
| O=C1C=C(N(CCF)Cc2cnc(Cl)c(Cl)c2)CO1 [Example 2, 4-[[(5,6-Dichloropyridin-3-yl)methyl](2-fluoroethyl)amino]furan-2(5H)-one] |  |  | 100 |  | 100 | 98 | 100 | 95 | 80 | 100 | 100 |
